This experiment in a line: Inhibition of bovine liver beta-glucosidase.

As usually defined, the IC50 is the concentration at which inhibition is half-maximal. Low readings indicate inhibition by little substance, high ones a need for much substance. In the case of `CCCC[C@H]1N[C@H](CO)[C@@H](O)[C@H](O)[C@H]1O` [(2R,3S,4R,5R,6R)-2-butyl-6-(hydroxymethyl)piperidine-3,4,5-triol], the IC50 is 120 µM.

`OC[C@H]1NC[C@H](O)[C@@H](O)[C@@H]1O` [(2R,3R,4R,5S)-2-(hydroxymethyl)piperidine-3,4,5-triol] showed an IC50 of 210 µM.

(Values after BindingDB's records for doi:10.1021/jm301304e (University of Toyama, 2012).)
